The source of these data is patent US20130005802A1, “TREATMENT OF WNT/FRIZZLED-RELATED DISEASES” (priority 2009, published 2013).

Molecules are shown by their SMILES.

For orientation: IC50 means the concentration at which inhibition is half-maximal.

The assay has as its system LEF/TCF transcription factor reporter (TOPFlash). Briefly: TOPFlash reporter assay in HEK293 cells. Format: cell-based. The following applies: Homo sapiens, read-out: TopFlash assay: IC50. As to the method:
To obtain a Frizzled1-GFP stable cell line (Fzd1GFP-U2OS), U2OS cells were transfected with pCS2ratFrizzled1-GFP and pLKO.1 (10:1 ratio by weight), using the Nucleofection transfection protocol from Amaxa, and stable receptor expressing clones were selected using 1.5 μg/mL puromycin in the culture medium. For generating TOPFlash stable cell lines, HEK293 cells were transfected with p8xTOPFlash, the Renilla luciferase plasmid, and pLKO.1 at a ratio by weight of 10:3:1 and stable clones selected using 1 μg/mL puromycin in the growth medium. pLKO.1 was used to confer puromycin resistance to the stable clones.
For the TOPFlash Luciferase assay the TOPFlash stable cells were seeded in 150 μL growing medium/well in 96-well plates at 100% confluency. Fifty microliters of conditioned medium containing the chemical compounds to be tested or DMSO were added to each well. After an 8 hr treatment, the cells were then washed once with PBS, and lysed with 80 μL MPER solution (Pierce, Rockford, Ill.). Thirty microliters of cell lysate were used for measuring luciferase activity in a 96-well plate reader (FluoStar Optima, BMG Labtech, Chicago, Ill.).
LEF/TCF transcription factor reporter (TOPFlash) assay is a general readout for canonical Wnt signaling pathways. […] A Renila luciferase plasmid was also generated to serve as an internal control.
The average TOPFlash reporter activity of Wnt3A plus DMSO treatment was set as 100%, and the relative reporter activity of Wnt3A plus the indicated concentration of niclosmide was calculated and plotted.
The compounds shown in Table 2 were purchased from Sigma-Aldrich (St. Louis, Mo.) or Chembridge (San Diego, Calif.). The activity of each of the compounds as a negative modulator of the Wnt/Frizzled signaling pathway was examined using the Top-flash assay, as described above.
On the technique in general: Reporter assays use an easily measured gene product as a stand-in for the process of interest.

Consider `Nc1ccc(NC(=O)c2cc(Cl)ccc2O)c(Cl)c1` [Compound 1-2, N-(4-amino-2-chlorophenyl)-5-chloro-2-hydroxybenzamide], for which the IC50 was greater than 12.5 µM. With `O=C(Nc1ccc([N+](=O)[O-])cc1)c1cc(Cl)ccc1O` [Compound 1-4, 5-chloro-2-hydroxy-N-(4-nitrophenyl)benzamide], the IC50 was less than 1 µM. In the case of `COc1ccc(Cl)cc1C(=O)Nc1ccc([N+](=O)[O-])cc1Cl` [Compound 1-6, Benzamide, 5-chloro-N-(2-chloro-4-nitrophenyl)-2-methoxy-], the IC50 is greater than 12.5 µM.

`O=C(Nc1ccc([N+](=O)[O-])cc1Cl)c1cccc(Cl)c1` [Compound 1-7, Benzamide, 3-chloro-N-(2-chloro-4-nitrophenyl)-]: the IC50 was greater than 12.5 µM. Then `O=C(Nc1cc(Cl)cc(Cl)c1O)c1c(O)c(Cl)cc(Cl)c1Cl` [Compound 2-1, Oxyclozanide], with greater than 12.5 µM; and `O=C(Nc1ccc(Oc2ccc(Cl)cc2)c(Cl)c1)c1cc(I)cc(I)c1O` [Compound 2-2, Rafoxanide], with greater than 12.5 µM. Then `Cc1cc(C(C#N)c2ccc(Cl)cc2)c(Cl)cc1NC(=O)c1cc(I)cc(I)c1O` (stereo not shown) [Compound 2-3, Closantel], with greater than 12.5 µM. As for `O=C(Nc1ccc(Br)cc1)c1cc(Br)cc(Br)c1O` [Compound 2-4, 3,5-dibromo-N-(4-bromophenyl)-2-hydroxybenzamide], the IC50 is greater than 12.5 µM. Then `O=C(Nc1ccc(NS(=O)(=O)c2ccc(Cl)cc2)cc1Cl)c1cc(Cl)ccc1O` [Compound 3-1, 5-chloro-N-(2-chloro-4-{[(4-chlorophenyl)sulfonyl]amino}phenyl)-2-hydroxybenzamide], with greater than 12.5 µM; and `Cc1cc([N+](=O)[O-])c(Cl)cc1NC(=O)c1ccccc1O` [Compound 3-2, N-(5-chloro-2-methyl-4-nitrophenyl)-2-hydroxybenzamide], with less than 1 µM. Then `O=C(Nc1ccc([N+](=O)[O-])cc1Cl)c1cc(Cl)cc(Cl)c1O` [Compound 3-3, 3,5-dichloro-N-(2-chloro-4-nitrophenyl)-2-hydroxybenzamide], with 1 to 12.5 µM; and `O=C(Nc1ccc([N+](=O)[O-])cc1Cl)c1cc(Br)ccc1O` [Compound 3-4, 5-bromo-N-(2-chloro-4-nitrophenyl)-2-hydroxybenzamide], with less than 1 µM; and `O=C(Nc1ccc([N+](=O)[O-])cc1)c1cc(Br)ccc1O` [Compound 3-5, 5-bromo-2-hydroxy-N-(4-nitrophenyl)benzamide], with less than 1 µM. Consider `O=C1c2ccc([N+](=O)[O-])cc2C(=O)N1c1cc(Cl)ccc1O` [Compound 3-6, 2-(5-chloro-2-hydroxyphenyl)-5-nitro-1H-isoindole-1,3(2H)-dione], for which the IC50 is greater than 12.5 µM. With `O=C(Nc1ccc([N+](=O)[O-])cc1Br)c1ccccc1O` [Compound 3-7, N-(2-bromo-4-nitrophenyl)-2-hydroxybenzamide], the IC50 fell in the range of 1 to 12.5 µM. For `O=C(Nc1ccc([N+](=O)[O-])cc1Cl)c1ccccc1O` [Compound 3-8, N-(2-chloro-4-nitrophenyl)-2-hydroxybenzamide] the value was 1 to 12.5 µM; for `COc1cc([N+](=O)[O-])ccc1NC(=O)c1cc(Cl)ccc1O` [Compound 3-9, 5-chloro-2-hydroxy-N-(2-methoxy-4-nitrophenyl)benzamide], less than 1 µM; for `O=C(Nc1cc(Cl)ccc1O)c1ccc([N+](=O)[O-])cc1` [Compound 3-10, N-(5-chloro-2-hydroxyphenyl)-4-nitrobenzamide], greater than 12.5 µM. Then `CS(=O)(=O)c1ccc(NC(=O)c2cc(Cl)ccc2O)c(Cl)c1` [Compound 3-11, 5-chloro-N-[2-chloro-4-(methylsulfonyl)phenyl]-2-hydroxybenzamide], with greater than 12.5 µM.
